Experimental data: US20240226228A1, “ANTIMICROBIAL PEPTOID HAVING IMPROVED SELECTIVITY AND ANTIMICROBIAL COMPOSITION COMPRISING SAME” (priority 2021, published 2024)
≈ marks a conversion by molar mass, not a printed value. Where two headings read alike, the source gives them in different places. Where a SMILES comes first, the peptide text is derived from it. [ ]: non-standard residue; d: D form. Gly(N(CH2)2(3-indolyl)) = O=C(O)CNCCc1c[nH]c2ccccc12; Nspe = C[C@H](NCC(=O)O)c1ccccc1; Nphe = O=C(O)CNCc1ccccc1; Nlys = NCCCCNCC(=O)O

What was measured:
E. coli ATCC25922 = test system: E. coli ATCC25922
How it was run: (§1)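 Cation-adjusted MHB2 cultures (18 h, subcultured 4 h) adjusted to 2×10^5–5×10^5 CFU/mL in medium with 0.02% BSA and 0.001% acetic acid.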

S. aureus ATCC 25923 = test system: S. aureus ATCC 25923
How it was run: as §1

red blood cells = assay: Hemolysis assay; assay type: cell-based, Sprague-Dawley mouse
How it was run: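 Peptoid is mixed with 10% (v/v) PBS-washed erythrocytes (male Sprague-Dawley […], 13 weeks) and held 1 h at 37 °C. Hemolysis is calculated from 540 nm absorbance of the supernatant, with PBS as 0% and Triton X-100 as 100%.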

[1] = Table 18, TFA salt vs counter ion-substituted (HCl, AcOH) peptoids
[2] = Tables 11-13, 24 hours at 37° C., maximum concentration 25 μM

| Compound | MIC E. coli ATCC25922 (E. coli ATCC25922; [1]) | MIC S. aureus ATCC 25923 (S. aureus ATCC 25923; [1]) | HC10 (red blood cells) | HC50 (red blood cells) | Hmax (100 μM) (red blood cells) | MIC E. coli ATCC25922 (E. coli ATCC25922; [2]) | MIC S. aureus ATCC 25923 (S. aureus ATCC 25923; [2]) |
| --- | --- | --- | --- | --- | --- | --- | --- |
| C[C@@H](c1ccccc1)N(CC(=O)N(CCCCN)CC(=O)N(CC(=O)N(CC(=O)N(CCCCN)CC(=O)N(CC(=O)N(CC(=O)N(CCCCN)CC(N)=O)[C@@H](C)c1ccccc1)[C@@H](C)c1ccccc1)[C@@H](C)c1ccccc1)[C@@H](C)c1ccccc1)C(=O)CN(C(=O)CN(CCCCN)C(=O)CN(CCc1c[nH]c2ccccc12)C(=O)CNCCc1c[nH]c2ccccc12)[C@@H](C)c1ccccc1 [Peptoid 37-2] (H-[Gly(N(CH2)2(3-indolyl))][Gly(N(CH2)2(3-indolyl))][Nlys][Nspe][Nspe][Nlys][Nspe][Nspe][Nlys][Nspe][Nspe][Nlys]-NH2) | 6.3 µM | 1.6 µM | 12.5 µM | 26.0 µM | 98.9 ± 8.0% |  |  |
| C[C@@H](c1ccccc1)N(CC(=O)N(CCCCN)CC(=O)N(CC(=O)N(CC(=O)N(CCCCN)CC(=O)N(CC(=O)N(CC(=O)N(CCCCN)CC(=O)N(CCc1c[nH]c2ccccc12)CC(=O)N(CCc1c[nH]c2ccccc12)CC(N)=O)[C@@H](C)c1ccccc1)[C@@H](C)c1ccccc1)[C@@H](C)c1ccccc1)[C@@H](C)c1ccccc1)C(=O)CN(CCCCN)C(=O)CNCCCCN [Peptoid 31] (H-[Nlys][Nlys][Nspe][Nlys][Nspe][Nspe][Nlys][Nspe][Nspe][Nlys][Gly(N(CH2)2(3-indolyl))][Gly(N(CH2)2(3-indolyl))]-NH2) |  |  | 59.0 µM | > 100 µM | 18.4 ± 5.0% | 6.3 µM (≈ 11.7 µg/mL) | 3.1 µM (≈ 5.78 µg/mL) |
| C[C@@H](c1ccccc1)N(CC(=O)N(CCCCN)CC(=O)N(CC(=O)N(CC(=O)N(CCCCN)CC(=O)N(CC(=O)N(CC(=O)N(CCCCN)CC(=O)N(CC(=O)N(CCc1c[nH]c2ccccc12)CC(N)=O)[C@@H](C)c1ccccc1)[C@@H](C)c1ccccc1)[C@@H](C)c1ccccc1)[C@@H](C)c1ccccc1)[C@@H](C)c1ccccc1)C(=O)CN(CCc1c[nH]c2ccccc12)C(=O)CNCCCCN [Peptoid 17] (H-[Nlys][Gly(N(CH2)2(3-indolyl))][Nspe][Nlys][Nspe][Nspe][Nlys][Nspe][Nspe][Nlys][Nspe][Gly(N(CH2)2(3-indolyl))]-NH2) |  |  | 18.0 µM | 39.7 µM | 87.3 ± 6.7% | 6.3 µM (≈ 12 µg/mL) | 1.6 µM (≈ 3.04 µg/mL) |
| C[C@@H](c1ccccc1)N(CC(=O)N(CCCCN)CC(=O)N(CCCCN)CC(=O)N(CCc1c[nH]c2ccccc12)CC(=O)N(CCc1c[nH]c2ccccc12)CC(N)=O)C(=O)CN(CCCCN)C(=O)CN(C(=O)CN(C(=O)CN(CCCCN)C(=O)CN(C(=O)CN(C(=O)CNCCCCN)[C@@H](C)c1ccccc1)[C@@H](C)c1ccccc1)[C@@H](C)c1ccccc1)[C@@H](C)c1ccccc1 [Peptoid 28] (H-[Nlys][Nspe][Nspe][Nlys][Nspe][Nspe][Nlys][Nspe][Nlys][Nlys][Gly(N(CH2)2(3-indolyl))][Gly(N(CH2)2(3-indolyl))]-NH2) |  |  | >100/>100 μM | >100/>100 μM | 8.9 ± 1.4% | 12.5 µM (≈ 23.3 µg/mL) | 6.3 µM (≈ 11.7 µg/mL) |
| C[C@@H](c1ccccc1)N(CC(N)=O)C(=O)CN(C(=O)CN(CCCCN)C(=O)CN(C(=O)CN(C(=O)CN(CCCCN)C(=O)CN(CCc1c[nH]c2ccccc12)C(=O)CN(CCc1c[nH]c2ccccc12)C(=O)CN(CCCCN)C(=O)CN(CCc1c[nH]c2ccccc12)C(=O)CN(CCc1c[nH]c2ccccc12)C(=O)CNCCCCN)[C@@H](C)c1ccccc1)[C@@H](C)c1ccccc1)[C@@H](C)c1ccccc1 [Peptoid 21] |  |  | 23.2 µM | 64.9 µM | 83.7 ± 2.0% | 6.3 µM (≈ 12.4 µg/mL) | 1.6 µM (≈ 3.16 µg/mL) |
| C[C@@H](c1ccccc1)N(CC(=O)N(CCc1c[nH]c2ccccc12)CC(=O)N(CCCCN)CC(=O)N(CC(=O)N(CC(=O)N(CCCCN)CC(=O)N(CC(=O)N(CC(=O)N(CCCCN)CC(=O)N(CC(=O)N(CCc1c[nH]c2ccccc12)CC(N)=O)[C@@H](C)c1ccccc1)[C@@H](C)c1ccccc1)[C@@H](C)c1ccccc1)[C@@H](C)c1ccccc1)[C@@H](C)c1ccccc1)C(=O)CNCCCCN [Peptoid 16] (H-[Nlys][Nspe][Gly(N(CH2)2(3-indolyl))][Nlys][Nspe][Nspe][Nlys][Nspe][Nspe][Nlys][Nspe][Gly(N(CH2)2(3-indolyl))]-NH2) |  |  | 13.8 µM | 25.0 µM | 100.3 ± 1.7% | 6.3 µM (≈ 12 µg/mL) | 1.6 µM (≈ 3.04 µg/mL) |
| NCCCCNCC(=O)N(CC(=O)N(CC(=O)N(CCCCN)CC(=O)N(CC(=O)N(CC(=O)N(CCCCN)CC(=O)N(CC(=O)N(CC(=O)N(CCCCN)CC(=O)N(CC(=O)N(CC(N)=O)Cc1ccccc1)Cc1ccccc1)Cc1ccccc1)Cc1ccccc1)Cc1ccccc1)Cc1ccccc1)Cc1ccccc1)Cc1ccccc1 [Peptoid 2] (H-[Nlys][Nphe][Nphe][Nlys][Nphe][Nphe][Nlys][Nphe][Nphe][Nlys][Nphe][Nphe]-NH2) |  |  | 20.4 µM | > 100.0 µM | 17.7 ± 1.1% | 12.5 µM (≈ 21.3 µg/mL) | 3.1 µM (≈ 5.29 µg/mL) |
| C[C@@H](c1ccccc1)N(CC(=O)N(CCCCN)CC(=O)N(CCCCN)CC(=O)N(CC(=O)N(CC(=O)N(CCCCN)CC(=O)N(CC(=O)N(CC(=O)N(CCCCN)CC(N)=O)[C@@H](C)c1ccccc1)[C@@H](C)c1ccccc1)[C@@H](C)c1ccccc1)[C@@H](C)c1ccccc1)C(=O)CN(CCCCN)C(=O)CN(CCc1c[nH]c2ccccc12)C(=O)CNCCc1c[nH]c2ccccc12 [Peptoid 38] (H-[Gly(N(CH2)2(3-indolyl))][Gly(N(CH2)2(3-indolyl))][Nlys][Nspe][Nlys][Nlys][Nspe][Nspe][Nlys][Nspe][Nspe][Nlys]-NH2) |  |  | >100/>100 μM | >100/>100 μM | 5.9 ± 0.5% | 12.5 µM (≈ 23.3 µg/mL) | 6.3 µM (≈ 11.7 µg/mL) |
| C[C@@H](c1ccccc1)N(CC(=O)N(CCCCN)CC(=O)N(CC(=O)N(CC(=O)N(CCCCN)CC(=O)N(CC(=O)N(CC(=O)N(CCCCN)CC(=O)N(CCc1c[nH]c2ccccc12)CC(=O)N(CCc1c[nH]c2ccccc12)CC(N)=O)[C@@H](C)c1ccccc1)[C@@H](C)c1ccccc1)[C@@H](C)c1ccccc1)[C@@H](C)c1ccccc1)C(=O)CN(C(=O)CNCCCCN)[C@@H](C)c1ccccc1 [Peptoid 11-2] (H-[Nlys][Nspe][Nspe][Nlys][Nspe][Nspe][Nlys][Nspe][Nspe][Nlys][Gly(N(CH2)2(3-indolyl))][Gly(N(CH2)2(3-indolyl))]-NH2) | 3.1 µM | 1.6 µM | 8.7 µM | 29.7 µM | 110.4 ± 0.2% |  |  |
